Measured values taken from patent US5968912A, “Methods for immunosuppressing” (Immune Modulation, Inc., priority 1997, dated 1999).

Legend:
[1] = system: mononuclear leukocytes (Two-way MLR); experiment: Two-way mixed leukocyte reaction (MLR), 3H-thymidine incorporation; format: cell-based, human
[2] = system: H-2K anti-H-2d cytotoxic T-cells; experiment: Generation of H-2K anti-H-2d cytotoxic T-cell activity in mice, ex vivo 51Cr-release assay; set-up: species or system mouse (C3H/J; DBA/2 targets)
Procedure: Generation of H-2 Restricted Cytolytic T-lymphocytes in Mice
A mouse correlate of the human "one-way MLR" was developed in inbred strains of mice. The cells of one mouse strain (H-2^d) were injected i.v. into a different mouse strain (H-2^k). Mice were obtained from Charles River Laboratories, Hollister, Calif.). Because of the histoincompatibility between the two strains, the H-2^k mice develop cytotoxic T-cells capable of killing the cells of the H-2^d strain of mice (Abbas, A. K., id), which is the type of reaction observed in humans or animals receiving tissue grafts from histoincompatible donors. The H-2^k mice sensitized against H-2^d cells/allo-antigens were treated with either HE-33 (100 mg/kg i.v. or 400 mg/kg orally) every three days for 9 days or were not treated with drug.
Ex Vivo Assay. On the tenth day, all mice were sacrificed, and spleens were removed to test for splenic T-cell-mediated cytotoxicity against CON-A stimulated DBA/2 spleen cells expressing the H-2^d antigens. CON-A was obtained from Sigma Chem. Co., St. Louis, Mo. Spleen cell suspensions were prepared in complete culture medium and adjusted to desired concentrations. The CON-A blast cells were radiolabeled with ^51 Cr and mixed with the respective splenic effector cells at varying effector:target cell ratios in 96-well microtiter plates. The mixtures were cultured for 4 hr. at 37° C. in a 5% CO2 incubator. Lysis of target cells were assessed essentially as described previously for a ^51 Cr-release assay (Ojo-Amaize, E. A., et al., id) and results expressed as % specific lysis (FIG. 1).
*C3 H/J mouse was injected with 2 × 10^7 DBA/2 spleen cell
for 9 days. HE33 was administered either orally (400 mg/kg) or
intravenously (100 mg/kg) on day 0 and every three days. ConA stimulated
DBA/2 spleen cells were used as target cells.

Swiss Webster mice = experiment: Single dose range-finding toxicity study in mice; format: in vivo, mouse (Swiss Webster); set-up: key to Clinical observation: Normal / Clinical observation: Vocalization / Clinical observation: Slow breathing / Clinical observation: Hypoactive / Clinical observation: FPSR / Clinical observation: Cool to touch / Clinical observation: Hypoactivity: Observations are recorded as present (x); not observed (--)
Procedure: Single dose range-finding study of HE-33 in mice
Swiss Webster mice (Charles River Laboratories, Hollister, Calif.) were used for the preliminary toxicology study. One mouse per dose level was administered a single intravenous (IV) dose of either 1.5, 15, 75, 100, 150, 200, 300 or 400 mg of HE-33/kg body weight. The dose volume for all mice receiving saline or formulations of HE-3 3 was 10 mL/kg body weight. All doses were administered as a slow-push IV injection in the tail vein. Day 1 of the study for each mouse occurred on the day of administration of the drug or the saline.
Clinical observations/body weights
Each mouse was observed closely for clinical signs of toxicity at approximately 10, 30 and 60 minutes and 5 hours after dosing on Day 1, and once daily on Days 2-8. In addition, mortality checks were performed twice daily. Body weights were obtained on each mouse prior to dosing on Day 1. Body weights (Day 1) for the mice used in this study ranged between 27.3 and 32.5 g (Table 8).
^a Animals were dosed with saline adjusted to pH 8.55.
^b Observations are recorded as present (x) or not observed (--).
^c Additional observation was reported in the time interval closest t
^d FPSR = Flattened posture with or without closed eyes; animal would
periodically have a startled response in response to or without a noise

[3] = animal 3, 75 mg/kg IV, 30 min to day 8
[4] = animal 4, 150 mg/kg IV, 10, 30, 60 min
[5] = animal 4, 150 mg/kg IV, 5 hr to day 8
[6] = animal 5, 300 mg/kg IV, 10 min to 5 hr
[7] = animal 5, 300 mg/kg IV, days 2-8
[8] = animal 11, 300 mg/kg IV, 30, 60 min
[9] = animal 11, 300 mg/kg IV, 10 min and 5 hr to day 8

Question: Which IC50 ([1]; Homo sapiens, Leukocyte, read-out: IC50, drug concentration capable of inducing a 50% inhibition) does the source give for `CCCN(CCC)c1ncnc2c1ncn2[C@@H]1O[C@@H]2COP(=O)(O)O[C@H]2[C@H]1O` [HE-33, N^6,N^6 -di-n-Propyl-c-AMP] here?
Answer: 100 to 1000 nM

Question: What about the inhibition at 0.01 µM ([1]; Homo sapiens, Leukocyte, 0.01 μM) of the same molecule?
Answer: 28%

Question: What about the inhibition at 0.1 µM ([1]; Homo sapiens, Leukocyte, 0.1 μM) of the same molecule?
Answer: 40%

Question: What about the inhibition at 1 µM ([1]; Homo sapiens, Leukocyte, 1 μM) of the same molecule?
Answer: 81%

Question: And the inhibition at 10 µM ([1]; Homo sapiens, Leukocyte, 10 μM)?
Answer: 96%

Question: What about the inhibition at 100 µM ([1]; Homo sapiens, Leukocyte, 100 μM) of the same molecule?
Answer: 99.2%

Question: What about the “Inhibitory capacity on two-way MLR, in words” value ([1]; two-way MLR) of the same molecule?
Answer: comparable to that of cyclosporin (CsA)

Question: What about the L.U. ([2]; I.V. injected 100 mg/kg) of the same molecule?
Answer: 1 L.U.

Question: What about the “% Inhibition of cytotoxic T-cell activity” value ([2]; I.V. injected 100 mg/kg every three days) of the same molecule?
Answer: 92%

Question: What about the “% Lysis” value ([2]; I.V. injected 100 mg/kg, ratio 3.12:1) of the same molecule?
Answer: 0%

Question: And the “% Lysis” value ([2]; I.V. injected 100 mg/kg, ratio 6.25:1)?
Answer: 0%

Question: What about the “% Lysis” value ([2]; I.V. injected 100 mg/kg, ratio 12.5:1) of the same molecule?
Answer: 0%

Question: And the “% Lysis” value ([2]; I.V. injected 100 mg/kg, ratio 25:1)?
Answer: 1%

Question: What about the “% Inhibition of cytotoxic T-cell activity” value ([2]; oral fed 400 mg/kg) of the same molecule?
Answer: 32%

Question: And the L.U. ([2]; oral fed 400 mg/kg)?
Answer: 9 L.U.

Question: What about the “% Lysis” value ([2]; oral fed 400 mg/kg, ratio 3.12:1) of the same molecule?
Answer: 1%

Question: And the “% Lysis” value ([2]; oral fed 400 mg/kg, ratio 6.25:1)?
Answer: 2%

Question: What about the “% Lysis” value ([2]; oral fed 400 mg/kg, ratio 12.5:1) of the same molecule?
Answer: 2%

Question: What about the “% Lysis” value ([2]; oral fed 400 mg/kg, ratio 25:1) of the same molecule?
Answer: 5%

Question: And the “Clinical signs of toxicity” value (Swiss Webster mice; 150-400 mg/kg IV, between 10 minutes and 5 hrs after dosing on Day 1)?
Answer: signs of hypoactivity, flattened posture with or without closed eyes and slow breathing

Question: What about the “Clinical observation: Normal” value (Swiss Webster mice; animal 1, 1.5 mg/kg IV, all times 10 min to day 8) of the same molecule?
Answer: x

Question: And the “Clinical observation: Normal” value (Swiss Webster mice; animal 2, 15 mg/kg IV, all times 10 min to day 8)?
Answer: x

Question: What about the “Clinical observation: Normal” value (Swiss Webster mice; animal 3, 75 mg/kg IV, 10 min) of the same molecule?
Answer: --

Question: What about the “Clinical observation: Vocalization” value (Swiss Webster mice; animal 3, 75 mg/kg IV, 10 min) of the same molecule?
Answer: x

Question: And the “Clinical observation: Normal” value (Swiss Webster mice; [3])?
Answer: x

Question: What about the “Clinical observation: Vocalization” value (Swiss Webster mice; [3]) of the same molecule?
Answer: --

Question: And the “Clinical observation: FPSR” value (Swiss Webster mice; [4])?
Answer: x

Question: What about the “Clinical observation: Hypoactive” value (Swiss Webster mice; [4]) of the same molecule?
Answer: x

Question: What about the “Clinical observation: Normal” value (Swiss Webster mice; [4]) of the same molecule?
Answer: --

Question: What about the “Clinical observation: Slow breathing” value (Swiss Webster mice; [4]) of the same molecule?
Answer: x

Question: And the “Clinical observation: FPSR” value (Swiss Webster mice; [5])?
Answer: --

Question: And the “Clinical observation: Hypoactive” value (Swiss Webster mice; [5])?
Answer: --

Question: And the “Clinical observation: Normal” value (Swiss Webster mice; [5])?
Answer: x

Question: What about the “Clinical observation: Slow breathing” value (Swiss Webster mice; [5]) of the same molecule?
Answer: --

Question: What about the “Clinical observation: FPSR” value (Swiss Webster mice; animal 5, 300 mg/kg IV, 10, 30, 60 min) of the same molecule?
Answer: x

Question: And the “Clinical observation: Cool to touch” value (Swiss Webster mice; animal 5, 300 mg/kg IV, 10, 30, 60 min and days 2-8)?
Answer: --

Question: And the “Clinical observation: Hypoactivity” value (Swiss Webster mice; [6])?
Answer: x

Question: And the “Clinical observation: Normal” value (Swiss Webster mice; [6])?
Answer: --

Question: And the “Clinical observation: Slow breathing” value (Swiss Webster mice; [6])?
Answer: x

Question: And the “Clinical observation: Cool to touch” value (Swiss Webster mice; animal 5, 300 mg/kg IV, 5 hr)?
Answer: x

Question: What about the “Clinical observation: FPSR” value (Swiss Webster mice; animal 5, 300 mg/kg IV, 5 hr to day 8) of the same molecule?
Answer: --

Question: And the “Clinical observation: Hypoactivity” value (Swiss Webster mice; [7])?
Answer: --

Question: What about the “Clinical observation: Normal” value (Swiss Webster mice; [7]) of the same molecule?
Answer: x

Question: What about the “Clinical observation: Slow breathing” value (Swiss Webster mice; [7]) of the same molecule?
Answer: --

Question: What about the “Clinical observation: Normal” value (Swiss Webster mice; animal 8, 100 mg/kg IV, all times 10 min to day 8) of the same molecule?
Answer: x

Question: And the “Clinical observation: Normal” value (Swiss Webster mice; animal 9, 200 mg/kg IV, all times 10 min to day 8)?
Answer: x

Question: What about the “Clinical observation: Normal” value (Swiss Webster mice; animal 10, 200 mg/kg IV, all times 10 min to day 8) of the same molecule?
Answer: x

Question: What about the “Clinical observation: FPSR” value (Swiss Webster mice; [8]) of the same molecule?
Answer: x

Question: And the “Clinical observation: Hypoactivity” value (Swiss Webster mice; [8])?
Answer: x

Question: What about the “Clinical observation: Normal” value (Swiss Webster mice; [8]) of the same molecule?
Answer: --

Question: And the “Clinical observation: Slow breathing” value (Swiss Webster mice; [8])?
Answer: x

Question: What about the “Clinical observation: FPSR” value (Swiss Webster mice; [9]) of the same molecule?
Answer: --

Question: And the “Clinical observation: Hypoactivity” value (Swiss Webster mice; [9])?
Answer: --

Question: And the “Clinical observation: Normal” value (Swiss Webster mice; [9])?
Answer: x

Question: What about the “Clinical observation: Slow breathing” value (Swiss Webster mice; [9]) of the same molecule?
Answer: --

Question: What about the “Clinical observation: Slow breathing” value (Swiss Webster mice; animal 12, 400 mg/kg IV, 10, 30, 60 min and days 2-8) of the same molecule?
Answer: --

Question: What about the “Clinical observation: FPSR” value (Swiss Webster mice; animal 12, 400 mg/kg IV, 10 min) of the same molecule?
Answer: --

Question: And the “Clinical observation: Normal” value (Swiss Webster mice; animal 12, 400 mg/kg IV, 10 min and days 2-8)?
Answer: x

Question: What about the “Clinical observation: FPSR” value (Swiss Webster mice; animal 12, 400 mg/kg IV, 30 min) of the same molecule?
Answer: x

Question: And the “Clinical observation: Normal” value (Swiss Webster mice; animal 12, 400 mg/kg IV, 30 min, 60 min, 5 hr)?
Answer: --

Question: And the “Clinical observation: FPSR” value (Swiss Webster mice; animal 12, 400 mg/kg IV, 60 min, 5 hr)?
Answer: x

Question: And the “Clinical observation: Slow breathing” value (Swiss Webster mice; animal 12, 400 mg/kg IV, 5 hr)?
Answer: x

Question: And the “Clinical observation: FPSR” value (Swiss Webster mice; animal 12, 400 mg/kg IV, days 2-8)?
Answer: --

Question: What about the “Condition after Day 1” value (Swiss Webster mice; drug-treated groups, Days 2 to 8) of the same molecule?
Answer: normal between Days 2 and 8

Question: And the “Survival for the duration of the study” value (Swiss Webster mice; single IV 1.5-400 mg/kg, 8 days)?
Answer: All mice survived for the duration of the study
